From publication PMC11171523 (2024)

How the values were obtained:
[1] = test system: poly A–poly U (pApU, AU-RNA) (RNA, polymer) A/U; assay: UV melting at 260 nm; conditions: Na+ (sodium cacodylate, I = 0.05 M); pH 7; ratio [dye]/[polynucleotide] = 0.1; error ±0.5 °C; per base
[2] = test system: poly A–poly U (pApU, AU-RNA) (RNA, polymer) A/U; assay: fluorimetric titration, Scatchard fit; conditions: Na+ (sodium cacodylate, I = 0.05 M); pH 7.0, 25 °C; dye 50 nM; n fixed at 0.2; polynucleotide as phosphate; per base
[3] = test system: poly dAdT–poly dAdT (poly(dAdT)2, AT-DNA) (DNA, polymer) AT; assay: CD titration (induced CD); conditions: Na+ (sodium cacodylate, I = 0.05 M), pH 7
[4] = test system: poly dGdC–poly dGdC (poly(dGdC)2, GC-DNA) (DNA, polymer) GC; assay: CD titration (induced CD); conditions: Na+ (sodium cacodylate, I = 0.05 M), pH 7
[5] = ratio [dye]/[polynucleotide] = 0.1 and 0.5, negative ICD at 308–324 nm

| ΔTm [1] | log Ks [2] | binding ([3]; ratio [dye]/[polynucleotide] = 0.5, weaker ICD than GC-DNA) | binding ([4]; ratio [dye]/[polynucleotide] = 0.5, strong negative ICD at 325 nm) | binding [3, 5] | binding [4, 5] | Structure (SMILES) |
| --- | --- | --- | --- | --- | --- | --- |
| +12.5 °C | 8.6 | – | – | – | – | C[N+](C)(C)c1ccc(/C=C/c2cc(/C=C/c3ccc([N+](C)(C)C)cc3)c(/C=C/c3ccc([N+](C)(C)C)cc3)cc2/C=C/c2ccc([N+](C)(C)C)cc2)cc1 |
| +5.1 °C | 8.9 | – | – | yes | yes | CCCC[N+](C)(CCCC)c1ccc(/C=C/c2cc(/C=C/c3ccc([N+](C)(CCCC)CCCC)cc3)cc(/C=C/c3ccc([N+](C)(CCCC)CCCC)cc3)c2)cc1 |
| 0 °C | 8.6 | – | – | – | – | CCCC[N+](C)(CCCC)c1ccc(/C=C/c2cc(/C=C/c3ccc([N+](C)(CCCC)CCCC)cc3)c(/C=C/c3ccc([N+](C)(CCCC)CCCC)cc3)cc2/C=C/c2ccc([N+](C)(CCCC)CCCC)cc2)cc1 |

More lines, now with the values behind:

| Structure (SMILES) | ΔTm [1] | log Ks [2] | binding ([3]; ratio [dye]/[polynucleotide] = 0.5, weaker ICD than GC-DNA) | binding ([4]; ratio [dye]/[polynucleotide] = 0.5, strong negative ICD at 325 nm) | binding [3, 5] | binding [4, 5] |
| --- | --- | --- | --- | --- | --- | --- |
| C[n+]1ccc(/C=C/c2cc(/C=C/c3cc[n+](C)cc3)c(/C=C/c3cc[n+](C)cc3)cc2/C=C/c2cc[n+](C)cc2)cc1 | +6.4 °C | 8.2 | – | – | – | – |
| C[N+](C)(C)c1ccc(/C=C/c2cc(/C=C/c3ccc([N+](C)(C)C)cc3)cc(/C=C/c3ccc([N+](C)(C)C)cc3)c2)cc1 | +23.2 °C | 8.9 | yes | yes | – | – |
| CCCC[n+]1ccc(/C=C/c2cc(/C=C/c3cc[n+](CCCC)cc3)cc(/C=C/c3cc[n+](CCCC)cc3)c2)cc1 | +1.5 °C | 8.7 | – | – | – | – |
| C[n+]1ccc(/C=C/c2cc(/C=C/c3cc[n+](C)cc3)cc(/C=C/c3cc[n+](C)cc3)c2)cc1 | +8.5 °C | 8.7 | – | – | – | – |
| C#CC[N+](C)(C)c1ccc(/C=C/c2cc(/C=C/c3ccc([N+](C)(C)CC#C)cc3)c(/C=C/c3ccc([N+](C)(C)CC#C)cc3)cc2/C=C/c2ccc([N+](C)(C)CC#C)cc2)cc1 | +10.4 °C | 8.9 | – | – | – | – |
| CCCC[n+]1ccc(/C=C/c2cc(/C=C/c3cc[n+](CCCC)cc3)c(/C=C/c3cc[n+](CCCC)cc3)cc2/C=C/c2cc[n+](CCCC)cc2)cc1 | +1.7 °C | 7.6 | – | – | – | – |
| C#CC[N+](C)(C)c1ccc(/C=C/c2cc(/C=C/c3ccc([N+](C)(C)CC#C)cc3)cc(/C=C/c3ccc([N+](C)(C)CC#C)cc3)c2)cc1 | +18.1 °C | 8.6 | – | – | – | – |
